Active and inactive are the calls of the source. The calls are words filed in the database; no cut-off is given here.
Legend:
HeLa [1] = assay: Cytotoxicity against human HeLa cells assessed as cell viability at 120 uM after 3 days by CellTiter96 Aqueous One Solution assay; type: functional, cell-based
Escherichia coli = assay: Inhibition of Escherichia coli topoisomerase assessed as bacterial proliferation at 200 uM after 24 hrs by visual inspection assay
DNA topoisomerase 1 = molecular target: T1, DNA topoisomerase 1 (Homo sapiens, UniProt P11387); assay: Inhibition of human topoisomerase 1 activity assessed as DNA triplex formation and presence of supercoiled DNA by microplate assay
T1 sequence (P11387 whole entry): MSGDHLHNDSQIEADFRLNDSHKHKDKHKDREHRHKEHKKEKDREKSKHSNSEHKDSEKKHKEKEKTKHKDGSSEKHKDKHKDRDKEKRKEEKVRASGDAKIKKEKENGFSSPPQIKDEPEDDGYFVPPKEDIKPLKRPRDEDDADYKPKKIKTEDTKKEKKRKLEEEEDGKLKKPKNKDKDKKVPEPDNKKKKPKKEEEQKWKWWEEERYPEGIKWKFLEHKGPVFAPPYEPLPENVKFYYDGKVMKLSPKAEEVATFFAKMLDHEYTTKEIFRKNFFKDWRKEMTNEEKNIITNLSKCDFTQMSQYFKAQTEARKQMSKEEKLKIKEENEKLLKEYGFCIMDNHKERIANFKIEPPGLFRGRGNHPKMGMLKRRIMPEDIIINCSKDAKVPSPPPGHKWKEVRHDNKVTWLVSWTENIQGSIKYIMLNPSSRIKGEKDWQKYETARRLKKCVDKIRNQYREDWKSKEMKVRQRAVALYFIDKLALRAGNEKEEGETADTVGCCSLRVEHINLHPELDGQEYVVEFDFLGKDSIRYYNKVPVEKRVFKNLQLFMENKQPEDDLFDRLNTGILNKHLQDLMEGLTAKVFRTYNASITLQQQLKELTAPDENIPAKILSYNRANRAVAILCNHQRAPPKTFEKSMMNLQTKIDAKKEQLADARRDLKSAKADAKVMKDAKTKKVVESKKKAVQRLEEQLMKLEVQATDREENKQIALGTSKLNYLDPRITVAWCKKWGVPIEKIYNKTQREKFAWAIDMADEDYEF

HeLa [2] = assay: Cytotoxicity against human HeLa cells assessed as cell viability at 120 uM after 3 days by CellTiter96 Aqueous One Solution assay (reference value: 100%); type: functional; details: 72 h, read-out: Activity
[3] = molecular target: T2, ATP-dependent translocase ABCB1 (Homo sapiens, UniProt P08183); assay: Inhibition of human P-glycoprotein 1 ATPase activity assessed as remaining ATP level by luminescence analysis
T2 sequence (P08183 whole entry): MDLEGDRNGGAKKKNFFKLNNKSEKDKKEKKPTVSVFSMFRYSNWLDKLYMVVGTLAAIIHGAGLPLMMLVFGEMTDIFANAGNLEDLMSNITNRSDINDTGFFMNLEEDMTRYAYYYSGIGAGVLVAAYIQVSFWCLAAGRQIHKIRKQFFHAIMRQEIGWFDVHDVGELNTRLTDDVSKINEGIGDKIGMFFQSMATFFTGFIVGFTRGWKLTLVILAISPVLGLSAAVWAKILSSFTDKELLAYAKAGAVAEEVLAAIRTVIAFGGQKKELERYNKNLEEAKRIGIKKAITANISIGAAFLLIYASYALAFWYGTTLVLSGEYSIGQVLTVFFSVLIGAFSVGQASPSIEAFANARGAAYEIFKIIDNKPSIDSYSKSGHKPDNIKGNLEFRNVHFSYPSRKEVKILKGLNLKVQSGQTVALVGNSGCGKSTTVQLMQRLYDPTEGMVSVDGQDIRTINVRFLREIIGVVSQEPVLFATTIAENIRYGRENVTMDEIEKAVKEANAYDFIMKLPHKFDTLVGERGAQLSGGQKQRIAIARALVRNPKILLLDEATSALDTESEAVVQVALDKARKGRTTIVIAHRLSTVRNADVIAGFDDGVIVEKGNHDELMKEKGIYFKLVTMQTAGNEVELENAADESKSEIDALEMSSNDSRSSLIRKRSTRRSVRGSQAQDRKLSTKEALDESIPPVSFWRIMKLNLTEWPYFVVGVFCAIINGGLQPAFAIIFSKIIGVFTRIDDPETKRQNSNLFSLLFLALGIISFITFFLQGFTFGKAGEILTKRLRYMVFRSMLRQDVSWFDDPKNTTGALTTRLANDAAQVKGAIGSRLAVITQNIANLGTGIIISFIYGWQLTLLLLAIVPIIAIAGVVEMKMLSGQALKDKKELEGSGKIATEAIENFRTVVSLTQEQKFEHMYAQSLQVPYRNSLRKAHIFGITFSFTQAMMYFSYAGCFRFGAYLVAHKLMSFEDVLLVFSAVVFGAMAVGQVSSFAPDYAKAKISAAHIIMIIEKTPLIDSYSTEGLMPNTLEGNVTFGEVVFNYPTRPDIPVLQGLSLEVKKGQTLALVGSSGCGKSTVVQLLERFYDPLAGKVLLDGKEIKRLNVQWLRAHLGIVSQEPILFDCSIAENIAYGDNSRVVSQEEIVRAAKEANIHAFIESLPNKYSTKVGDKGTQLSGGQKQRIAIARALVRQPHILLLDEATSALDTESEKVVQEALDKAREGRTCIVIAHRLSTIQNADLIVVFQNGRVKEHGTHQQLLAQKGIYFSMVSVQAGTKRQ

HeLa [4] = assay: Effect on apoptosis in human HeLa cells assessed as cell morphology and extracellular membrane after 48 hrs; type: functional, cell-based
[5] = molecular target: T2, ATP-dependent translocase ABCB1; assay: Inhibition of P-glycoprotein 1 in human HeLa cells assessed as intracellular accumulation of Hoechst 33342 dye after 30 mins by fluorescence microscopic analysis; type: cell-based

With `CC(=O)OCC(OC(C)=O)C(OC(C)=O)C(OC(C)=O)C(OC(C)=O)C(OC(C)=O)OC(C)=O` (centres undefined) the Activity (HeLa [1]) was “inactive”.

With `CCSC(SCC)C(O)C(O)C(O)C(O)CO` (centres undefined) the Activity (HeLa [1]) was “inactive”.

In the case of `NC(=O)c1ncn([C@@H]2O[C@H](CO)[C@@H](O)[C@H]2O)n1` [RIBAVIRIN], the inhibition (Escherichia coli) is reported as “inactive” and the IC50 (DNA topoisomerase 1) is reported as 65.9 µM.

`CC(=O)OCC(OC(C)=O)C(OC(C)=O)C(O)C1SCC(C(=O)N(C)C)N1C(C)=O` (centres undefined) was tested, and the Activity (HeLa [1]) was “inactive”.

For `CN(C=C(C#N)C#N)CC(O)C(O)C(O)C(O)CO` (centres undefined), the Activity (HeLa [1]) was “inactive”, the inhibition (Escherichia coli) was “inactive” and the IC50 (DNA topoisomerase 1) was 47.5 µM.

Work on `O=c1c(-c2ccc3c(c2)OCCO3)coc2cc(OC3OC(CO)C(O)C(O)C3O)ccc12` (centres undefined) yielded a viability at 120 µM (HeLa [2]) of 82%.

With `CC(=O)OCC1OC(Sc2ccccc2)C(OC(C)=O)C(OC(C)=O)C1OC(C)=O` (centres undefined) the IC50 [3] was 37 µM, the viability at 120 µM (HeLa [2]) was 87% and the Activity (HeLa [4]) was “inactive”. For the same molecule, the IC50 [5] was 15.4 µM.

For `CC(=O)c1ccc(OCC(O)CN2CCN(C(c3ccccc3)c3ccccc3)CC2)cc1` (centres undefined), the viability at 120 µM (HeLa [2]) was 37%.

For `CO[C@@H]1O[C@H](CO)[C@H](O)[C@H](O)[C@H]1O`, the Activity (HeLa [1]) was “inactive”.

`CC(=O)OC[C@H](OC(C)=O)[C@H](OC(C)=O)[C@@H](CNC(=O)c1ccc(C)c(C)c1)OC(C)=O` was tested, and the Activity (HeLa [1]) was “inactive”, the IC50 [3] was 28 µM and the Activity (HeLa [4]) was “inactive”. The IC50 [5] was 15.5 µM.

— ChEMBL document CHEMBL3217430, “Experimental validation of in silico target predictions on synergistic protein targets” (Medchemcomm, 2013)
